Experimental data from patent US5202130A, “Suppression of eczematous dermatitis by calcium transport inhibition” (The Johns Hopkins University, priority 1989, dated 1993).
Counter-ions that a name gives are not always drawn. Like-named read-outs stand apart in the source and are kept apart here.

Key:
[1] = system: contact sensitization against DNCB; test: Inhibition of sensitization by diltiazem against DNCB (ear swelling); type: in vivo, BALB/c mice
Method: Diltiazem HCl (1,5-Benzothiazepin-4(5H)one, 3-acetoy lox-5-(2-(dimethylamine)ethyl)-2, 3-dihydro-2(4-methoxyphenyl)-, monohydrochloride, (+)-cis) was injected intraperitoneally in a dose of 30 mg/kg (LD50 =60 mg per kg) two times a day for three days. Two hours after the first injection, mice were sensitized by applying DNCB to the shaved dorsal back skin. Contact sensitization against DNCB was determined five days later.

[2] = stated with intraperitoneal administration in mice; no test described; cited from earlier work
DNFB contact sensitivity = test: Transfer of hyporesponsiveness to DNFB by spleen cells of mice sensitized on LaCl3 treated skin; type: in vivo, mice of the strain AB (H-2^k)
Excerpt: (§1) Inbred mice of the strain AB (H-2^k) reared in the breeding colony of the Humboldt University Berlin were used. The mice were fed with water and standard pellets ad libitum. During all procedures (sensitization, challenge, measurement) the animals were anesthetized by an intraperitoneal injection of hexobarbital sodium salt. The number of animals per experimental group (n) is presented.
The mice were anesthesized in an area of 2.0×2.0 cm on their abdomen, abdominal skin was shaved with a blade, and a 20 microliters of a 0.5% solution of 2,4-dinitro-1-fluorobenzene (DNFB) (Serva, Heidelberg, F.R.G.) in acetone were applied to this site. This procedure was repeated one day later.
The challenge reaction was induced 5 days after the first sensitization by an application of 0.2% DNFB in acetone on the dorsal surfaces of both ears. The ear thickness was measured before and 24 hours after challenge using an engineers micrometer (Peacock, Japan).
(§2) 10 g LaCl3 ×7H2 O (Laborchemie Apolda, G.D.R.) was dissolved in 10 ml water and incorporated into unguentum alcoholum lanae aquosum. The previously shaved sensitization site on the abdominal skin of the mice was treated at the days numbered -1, 0, and +1 with this ointment. At the days 0 and +1, when contact sensitization with DNFB was performed, the ointment was applied on hour after sensitization, so that the penetration of the DNFB was not influenced by the ointment.
The spleens from mice treated with lanthanum and control animals were removed and homogenized by gently pressing the tissue through a steel mesh. The cell were suspended in RPMI 1640 medium (SIFIN, Berlin, G.D.R.) and were washed three times by centrifugation at 300 g for 10 minutes and resuspended. The treatment with monoclonal antibodies (mab) was performed by incubating the cells for 20 minutes with the L3T4 mab (clone GK 1.5, ATCC, Rockville, USA) or the anti-Lyt 2 mab (clone 53-6, ATCC, Rockville, USA) in a final dilution of 1:50. Thereafter the cells were washed 2 times and incubated for 20 minutes at 4° C. with a rat anti-mouse Ig mab (ATCC, Rockville, USA). […]

formaldehyde allergy = test: Prevention of inflammatory reaction by topical La^3+, patch test with formaldehyde; type: in vivo, human (patient); conditions: 2% in hydrophilic ointment base, read at 72 hours
Method: In this example, a patient with known allergy against for formaldehyde was challenged with formaldehyde in the presence of lanthanum chloride. Lanthanum chloride was used at a 2% concentration (2 g/100 ml) in hydrophilic ointment base, USP, and the lanthanum was incorporated in the ointment at the time of exposure. The results of the patch test were read at 72 hours, and a photograph was taken. […] There was a very slight decrease of inflammation due to the presence of the ointment base itself. This slight decrease as a result of the use the emollient only is a well known phenomenon. […] The effect of the lanthanum is clearly much greater than that of the ointment base alone.

[3] = type: in vivo, human (patients with atopic dermatitis)
Method: To date, eight patterns with endogenous eczema (atopic dermatitis) have been treated with topical lanthanides. In three individuals, atopic dermatitis affected the majority of the body surface. These three patients were treated with a single total body application of lanthanum chloride (5% in hydrophilic ointment base). Blood levels of lanthanum were measured by atomic absorption spectroscopy, over a period of 1/2 to 24 hours after the single application.

[4] = system: contact sensitization against DNCB; test: Effect of topically administered La^3+ on sensitization against DNCB (ear swelling); type: in vivo, BALB/c mice
Method: Mice were treated with 50 microliters of 10% La^3+ chloride mixture (500 mg La^3+ chloride dissolved in 5 ml of 95% ethanol:glycerin [4:1 ratio]) applied for five consecutive days to the shaved back surface. Control animals were treated with the ethanol:glycerin vehicle only. On days 6 and 7, 25 microliters of 1.0% DNCB solution was applied to the shaved dorsal back surface. In mice pretreated with topical La^3+, DNCB was applied only to the shaved dorsal skin that had previously been treated with La^3+.

[5] = system: delayed hypersensitivity to ovalbumin; test: Antigenic specificity of the suppressor cells (ovalbumin response of recipients); type: in vivo, mice of the strain AB (H-2^k)
Method: as §1, §2
The spleens from mice treated with lanthanum and control animals were removed and homogenized by gently pressing the tissue through a steel mesh. […]
Other groups of mice were sensitized by injection 50 microliters of ovalbumin (Serva, Heidelberg, F.R.G.) emulsified in 20 microliters of complete Freund's adjuvant (Difco laboratories, Detroit, U.S.A.) subcutaneously into the base of the tail. […] One day later foodpad swelling was measured. […]

[6] = system: atopic dermatitis affecting the hands; test: Treatment of atopic dermatitis affecting the hands with lanthanum chloride ointment; type: in vivo, human (patients); conditions: 5% ointment twice daily, 1-3 months; five patients
Method: Five patients with atopic dermatitis affecting the hands were treated with topical lanthanides. In this protocol individuals were dispensed a 5% lanthanum chloride ointment and were instructed to use a thin film on the hands twice daily immediately before work and immediately upon returning home from work. These individuals did so for a period of 1-3 months.

[7] = system: contact allergic dermatitis; test: Patch tests in seven patients with known contact allergic dermatitis, overall; type: in vivo, human (patients)
Method: Seven patients with known contact allergic dermatitis were recruited. One had hypersensitivity to nickel, four of these individuals had allergies against formaldehyde, and two had known allergies against chromium sulfate. Three patch test were applied in each individual. Patient number 1 was exposed to nickel sulfate (5% weight per volume) in hydrophilic ointment base USP. "Results" refers to the amount of erythema in the patch test sites at 48 hours, judged on a scale of 0-3+, where 3+ represents maximum erythema and inflammation.

[8] = system: suppressor cells (CD4 or CD8 T cell determinants); test: Phenotype of the suppressor cells, spleen cells treated in vitro with mab and complement before transfer; type: in vivo, mice of the strain AB (H-2^k)
Method: The spleens from mice treated with lanthanum and control animals were removed and homogenized by gently pressing the tissue through a steel mesh. […] Thereafter the cells were washed 2 times and incubated for 20 minutes at 4° C. with a rat anti-mouse Ig mab (ATCC, Rockville, USA). The cells were washed 2 times and incubated for 30 minutes at 37° C. with normal rabbit serum, diluted 1:5 as a source of complement. The serum used was not toxic to the cells. Thereafter the cells were washed 2 times and 10^8 viable cells were injected intravenously into native syngeneic mice.
The non-parametric Mann-Whitney test was used.
To investigate the phenotype of this suppressor cell, spleen cells were harvested from mice which were previously sensitized with DNFB on LaCl3 pretreated skin. […]

[9] = system: epidermal Langerhans cells (ELC); test: Density and morphology of epidermal Langerhans cells, ATPase and Ia staining; type: in vivo, BALB/c mice
Excerpt: Mice were sacrificed by cervical dislocation and their ears were amputated at the base. The skin was separated from underlying cartilage by dissection and pressed dermal side up onto an adhesive surface of a double stick tape (Dermotome Tape, 3M, St. Paul, Minn.), that had previously been fixed onto a glass slide. […] (25,26), then the epidermis was separated as an intact sheet from the underlying dermis.
Epidermal sheets were stained for ATPase activity according to MacKenzie and Squier (27). Briefly, epidermal sheets were fixed in Tris-maleic acid buffered 4% paraformaldehyde, pH 7.3, for 20 minutes at 4° C. After three washes with a 0.9% NaCl solution, the epidermal sheets were incubated at pH 7.3 in a solution containing 10 mg ATP, 5 ml of 10% MgSO4, 3 ml of 2% […], and 42 ml Tris-maleic acid buffer for one hour at 37° C., washed with 0.9% NaCl solution, and reacted with 0.1% ammonium sulfide for five minutes at room temperature. The stained specimens were mounted in a 9:1 mixture of PBS/glycerol.
Ia-positive cells were stained as follows: EDTA separated epidermal specimens, washed in PBS for 30 minutes, were fixed in cold acetone (-20° C.) for 20 minutes. After washing with PBS, the epidermal sheets were incubated with a 1:100 dilution of anti-mouse I-A^d monoclonal antibody (Becton Dickinson, Mountain View, Calif.) at 4° C. overnight (28). Subsequently, specimens were washed in PBS for two hours and exposed to fluorescein conjugated F(ab')2 fragment goat anti-mouse IgG (Organon Teknika Corp., West Chester, Pa.) at a 1:50 dilution for two hours at 37° C. The epidermal sheets were mounted in Perma Fluor (Lipshaw, Detroit, Mich.).
Slides were coded and read in a "blinded" manner. The density of ELC within each epidermal sheet was determined by using a dual epifluorescent and light microscope (Olympus BH-2, Japan) with a calibrated net micrometer grid. ATPase-positive ELC and Ia-positive ELC present in a 0.25 mm^2 area were counted in two random fields per sheet (total: 16 fields per experimental group). ELC density was recorded as the number of cells per mm^2 (mean ±S.E.). Statistical significance of the differences between treatment and control groups was calculated using a two-talled Wilcoxon Rank Sum Test. Differences between groups were considered significant at p=0.05.

[10] = following intraperitoneal administration; cited from earlier work
[11] = 0.25 mg per animal intraperitoneally for five days, vs control animals

Compound: COc1ccc([C@@H]2Sc3ccccc3N(CCN(C)C)C(=O)[C@@H]2OC(C)=O)cc1 [diltiazem, 1,5-Benzothiazepin-4(5H)one, 3-acetoy lox-5-(2-(dimethylamine)ethyl)-2,3-dihydro-2(4-methoxyphenyl)-, monohydrochloride, (+)-cis]
- reduction in the contact hypersensitivity response ([1]; 30 mg/kg intraperitoneally two times a day for three days, p=0.001): 67%
- decrease in ear thickness 24 h post-challenge ([1]; FIG. 3, vs. solvent only, p<0.001): 67%
- difference in ear swelling between pretreated and control animals ([1]; statement follows negative controls (challenged, not sensitized) 0.03±0.01 mm): not statistically significant
- ear swelling ([1]; vehicle control 0.15±0.02 mm): 0.05±0.01 mm
- LD50 [2]: 60 mg per kg

Compound: [Cl][La]([Cl])[Cl] [lanthanum chloride, Lanthanum chloride]
- % Suppression (DNFB contact sensitivity; recipients of cells from donors DNFB-sensitized on LaCl3 treated skin, n 7): 88%
- transfer of hyporesponsiveness to DNFB by spleen cells (DNFB contact sensitivity; topical LaCl3 treatment of donors): transferred the hyporesponsiveness to DNFB to native syngeneic recipients
- Ear thickness (DNFB contact sensitivity; ± SD, recipients of cells from donors DNFB-sensitized on LaCl3 treated skin, n 7, p 0.01, no cell transfer 46 ± 4.8): 29 ± 2.4 10^-2 mm
- inflammation in patch test (formaldehyde allergy): almost totally abolished
- penetration of the stratum corneum of the epidermis [3]: does penetrate the stratum corneum of the epidermis
- time of peak blood level ([3]; human, in vivo, topical or ocular): approximately 4 hours
- Blood Concentration of La^+ 3 ([3]; human, in vivo, topical or ocular, 0.5 h): 4 ± 2.8 ng/mL
- Blood Concentration of La^+ 3 ([3]; human, in vivo, topical or ocular, 1 h): 12.3 ± 2.3 ng/mL
- Blood Concentration of La^+ 3 ([3]; human, in vivo, topical or ocular, 2 h): 12.16 ± 3 ng/mL
- Blood Concentration of La^+ 3 ([3]; human, in vivo, topical or ocular, 4 h): 30.9 ± 2.2 ng/mL
- Blood Concentration of La^+ 3 ([3]; human, in vivo, topical or ocular, 12 h): 14 ± 1.6 ng/mL
- Blood Concentration of La^+ 3 ([3]; human, in vivo, topical or ocular, 24 h): 11 ± 3.6 ng/mL
- blood level relative to levels known to produce toxicity in animals and humans ([3]; in vivo): well below those levels known to produce toxicity in animals and humans
- ear swelling ([4]; 24 h post-challenge, control 0.12±0.02 mm, p=0.028): 0.05±0.02 mm
- decrease in ear thickness 24 h post-challenge ([4]; FIG. 2, topical, vs. non-La-treated animals, p<0.01, challenge 25 μl of 0.25% DNCB): 58%
- difference in ear swelling between pretreated and control animals ([4]; statement follows negative control (challenged without prior sensitization) 0.03±0.01 mm): not statistically significant
- reduction in the contact hypersensitivity response ([4]; topical, 50 microliters of 10% La^3+ chloride, five days): 58%
- footpad swelling response of the recipients to ovalbumin ([5]; transferred cells from mice sensitized with DNFB on LaCl3-treated skin): not affected
- Ear thickness (footpad swelling per footnote) ([5]; ± SD, DNFB sensitization on LaCl3 treated skin, recipients immunized with ovalbumin, n 8, NS, no cell transfer .68 ± .12): .68 ± .09 10^-2 mm
- fissuring, oozing, and puritis [6]: decrease
- hand dermatitis [6]: significant improvement
- suppression of inflammation in all individuals ([7]; 5% lanthanum chloride at the time of exposure to known allergen): significant suppression of inflammation
- suppression of inflammation upon challenge ([7]; seven patients, known sensitizing agents): dose dependent effect in suppression of inflammation
- suppressor T cell population induced ([8]; DNFB-sensitized mice): a splenic CD4-CD8+ suppressor T cell population is induced
- % Suppression ([8]; spleen cells of LaCl3-treated, DNFB-sensitized donors, in vitro treatment as labelled (LaCl3 line = no treatment of cells), n 5): 100%
- Ear thickness ([8]; ± SD, spleen cells of LaCl3-treated, DNFB-sensitized donors, in vitro treatment as labelled (LaCl3 line = no treatment of cells), no cell transfer 50 ± 4.2, n 5): 28 ± 2.1 10^-2 mm

Compound: lanthanum citrate [La^3+ citrate]
- decrease in density of ATPase positive cells [9, 11]: 13%
- decrease in number of Ia-positive cells [9, 11]: 14%
- Density of Langerhans cells in ear skin, ATPase ([9]; ATPase staining, ± S.E., 0.9% NaCl 807 ± 55): 702 ± 49 cells/mm^2
- Density of Langerhans cells in ear skin, Ia ([9]; Ia staining, ± S.E., 0.9% NaCl 830 ± 46): 715 ± 59 cells/mm^2
- ELC "rounded up" and without dendrites ([9]; in focal areas, ATPase and Ia staining): approximately 20%
- staining of "round" cells by the ATPase technique ([9]; subjectively measured by darkening of the cell body): more darkly stained
- accumulation in the skin [10]: accumulated in the skin
